Experimental data taken from patent publication US20230382925A1, “MODULATORS OF CYSTIC FIBROSIS TRANSMEMBRANE CONDUCTANCE REGULATOR” (VERTEX PHARMACEUTICALS INCORPORATED, priority 2020, published 2023).

Experiments:
Format in all cases: cell-based
CFTR [1] = target: T1, CFTR (Homo sapiens, UniProt P13569, DEL508-508); experiment: HBE assay: Ussing chamber assay of CFTR-mediated short-circuit currents (F508del/MF-HBE, with 1 μM Ivacaftor); conditions: F508del/MF-HBE cells, 18-24 hours, 20% human serum; for EC50: range of concentrations with 1 μM Ivacaftor; for HBE Max Activity: with 1 μM Ivacaftor, compared to known Vertex corrector with 18 μM Tezacaftor and 1 μM Ivacaftor
T1 construct: human bronchial epithelial (HBE) cells derived from CF subjects heterozygous for F508del; endogenous in cells; host or cells: primary human bronchial epithelial cells from CF subjects (F508del/MF-HBE)
T1 sequence (P13569 with tags, fused parts or gaps DEL508-508): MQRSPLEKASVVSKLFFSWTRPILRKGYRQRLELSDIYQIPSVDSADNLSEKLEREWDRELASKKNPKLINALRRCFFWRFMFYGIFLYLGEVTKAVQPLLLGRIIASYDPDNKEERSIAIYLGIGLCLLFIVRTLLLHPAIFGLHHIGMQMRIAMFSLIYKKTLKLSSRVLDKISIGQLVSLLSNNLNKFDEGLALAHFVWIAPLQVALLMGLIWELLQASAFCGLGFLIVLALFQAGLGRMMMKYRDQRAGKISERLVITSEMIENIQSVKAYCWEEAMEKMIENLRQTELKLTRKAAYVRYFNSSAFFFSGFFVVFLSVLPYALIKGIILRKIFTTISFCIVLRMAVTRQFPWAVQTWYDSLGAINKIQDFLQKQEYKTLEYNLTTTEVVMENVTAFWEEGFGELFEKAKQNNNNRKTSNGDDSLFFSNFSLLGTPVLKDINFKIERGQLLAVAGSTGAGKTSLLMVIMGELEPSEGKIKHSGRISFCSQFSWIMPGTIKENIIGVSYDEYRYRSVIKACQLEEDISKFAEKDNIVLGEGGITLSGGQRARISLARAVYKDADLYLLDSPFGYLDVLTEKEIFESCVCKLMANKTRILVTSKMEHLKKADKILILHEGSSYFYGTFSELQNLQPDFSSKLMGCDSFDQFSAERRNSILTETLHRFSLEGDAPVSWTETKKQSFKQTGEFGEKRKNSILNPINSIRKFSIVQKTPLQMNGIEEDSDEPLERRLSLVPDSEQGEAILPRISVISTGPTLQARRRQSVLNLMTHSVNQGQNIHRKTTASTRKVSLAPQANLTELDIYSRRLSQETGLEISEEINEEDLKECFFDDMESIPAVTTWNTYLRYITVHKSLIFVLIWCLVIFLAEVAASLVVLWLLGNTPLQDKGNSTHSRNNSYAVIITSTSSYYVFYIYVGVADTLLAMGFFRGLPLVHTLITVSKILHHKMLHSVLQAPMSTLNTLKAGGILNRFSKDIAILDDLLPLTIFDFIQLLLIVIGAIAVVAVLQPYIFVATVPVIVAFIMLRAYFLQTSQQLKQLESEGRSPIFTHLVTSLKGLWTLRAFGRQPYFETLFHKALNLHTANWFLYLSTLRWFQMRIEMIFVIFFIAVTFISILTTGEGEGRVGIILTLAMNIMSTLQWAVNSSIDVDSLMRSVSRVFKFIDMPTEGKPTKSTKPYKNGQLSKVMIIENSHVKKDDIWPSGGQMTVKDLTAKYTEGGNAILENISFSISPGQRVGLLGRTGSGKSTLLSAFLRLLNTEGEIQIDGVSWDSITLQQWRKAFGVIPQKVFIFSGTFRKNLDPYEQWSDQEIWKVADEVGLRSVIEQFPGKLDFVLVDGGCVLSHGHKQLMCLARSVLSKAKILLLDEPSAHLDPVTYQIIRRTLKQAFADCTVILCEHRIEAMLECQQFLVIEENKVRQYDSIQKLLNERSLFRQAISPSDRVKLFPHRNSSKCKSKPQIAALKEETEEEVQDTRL
Procedure: 1. Ussing Chamber Assay of CFTR-mediated short-circuit currents
Ussing chamber experiments were performed using human bronchial epithelial (HBE) cells derived from CF subjects heterozygous for F508del and a minimal function CFTR mutation (F508del/MF-HBE) and cultured as previously described (Neuberger T, Burton B, Clark H, Van Goor F Methods Mol Biol 2011:741:39-54). After four days the apical media was removed, and the cells were grown at an air liquid interface for >14 days prior to use.
To isolate the CFTR-mediated short-circuit (ISC) current, F508del/MF-HBE grown on Costar® Snapwell™ cell culture inserts were mounted in an Ussing chamber and the transepithelial ISC was measured under voltage-clamp recording conditions (Vhold=0 mV) at 37° C. The basolateral solution contained (in mM) 145 NaCl, 0.83 K2HPO4, 3.3 KH2PO4, 1.2 MgCl2, 1.2 CaCl2), 10 Glucose, 10 HEPES (pH adjusted to 7.4 with NaOH) and the apical solution contained (in mM) 145 NaGluconate, 1.2 MgCl2, 1.2 CaCl2), 10 glucose, 10 HEPES (pH adjusted to 7.4 with NaOH) and 30 μM amiloride to block the epithelial sodium channel. Forskolin (20 μM) was added to the apical surface to activate CFTR, followed by apical addition of a CFTR inhibitor cocktail consisting of BPO, GlyH-101, and CFTR inhibitor 172 (each at 20 μM final assay concentration) to specifically isolate CFTR currents. The CFTR-mediated ISC (μA/cm^2) for each condition was determined from the peak forskolin response to the steady-state current following inhibition.
2. Identification of Corrector Compounds
The activity of the CFTR corrector compounds on the CFTR-mediated ISC was determined in Ussing chamber studies as described above. The F508del/MF-HBE cell cultures were either incubated with the corrector compounds at a range of concentrations in combination with 1 μM Ivacaftor or were incubated with the corrector compounds at a single fixed concentration of 10 μM in combination with 1 μM Ivacaftor for 18-24 hours at 37° C. and in the presence of 20% human serum. The concentration of corrector compounds with 1 μM Ivacaftor during the 18-24 hours incubations was kept constant throughout the Ussing chamber measurement of the CFTR-mediated ISC to ensure compounds were present throughout the entire experiment.

CFTR [2] = target: T2, CFTR (Homo sapiens, UniProt P13569); experiment: Membrane Potential Dye, Enteroid Assay A; conditions: for EC50: read-out: Ent. A EC50
T2 sequence (P13569 with tags, fused parts or gaps DEL508-508): as above
Procedure, shortened: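 Primary human intestinal enteroid cells exposed to compound for 18–24 hours at 37 °C, then loaded 25 min with methyl oxonol membrane potential dye plus CaCC inhibitors. Chloride transport triggered in chloride-free buffer with 10 μM forskolin, 100 μM IBMX and 300 nM Compound III, fluorescence read 15 min; % Activity relative to a triple-combination corrector/potentiator control.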

CFTR [3] = target: T2, CFTR; experiment: Membrane Potential Dye, Enteroid Assay B; conditions: for EC50: read-out: Ent. B EC50
Procedure, shortened: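 Human intestinal enteroid cells exposed to compound 18-24 h at 37 °C, then loaded with methyl oxonol membrane-potential dye plus CaCC blockers. Chloride transport triggered in chloride-free buffer with 10 μM forskolin, 100 μM IBMX, 300 nM Compound III; fluorescence read 15 min, expressed as % of triple-corrector/potentiator combination control.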

SMILES	EC50 (CFTR [1])	HBE Max Activity (CFTR [1])	Ent. A Max Activity (%) (CFTR [2])	EC50 (CFTR [2])	Ent. B Max Activity (%) (CFTR [3])	EC50 (CFTR [3])
Cc1cccc(C)c1-c1cc2nc(n1)NS(=O)(=O)c1cccc(c1)C(=O)N(C1CC3(CC(N4C[C@@H](C)O[C@@H](C)C4)C3)C1)[C@H](CC(C)(C)C)CO2 (single isomer, unassigned) [Compound 86]	< 1 µM	+++ (+++ is >60%)				
Cc1cccc(C)c1-c1cc2nc(n1)NS(=O)(=O)c1cccc(c1)C(=O)N(C1CC3(CC(N4C[C@@H](C)O[C@@H](C)C4)C3)C1)[C@H](CC(C)(C)C)CO2 (single isomer, unassigned) [Compound 87]	< 1 µM	+++ (+++ is >60%)				
Cc1cccc(C)c1-c1cc2nc(n1)NS(=O)(=O)c1cccc(c1)C(=O)N([C@H]1C[C@](C)(O)C1)[C@H](CC(C)(C)C)CO2 (single isomer, unassigned) [Compound 139]	< 1 µM	+++ (+++ is >60%)				
Cc1cccc(C)c1-c1cc2nc(n1)NS(=O)(=O)c1cccc(c1)C(=O)N([C@H]1C[C@@](O)(Cc3ccccc3)C1)[C@H](CC(C)(C)C)CO2 (single isomer, unassigned) [Compound 140]	< 1 µM	+++ (+++ is >60%)				
Cc1cccc(C)c1-c1cc2nc(n1)NS(=O)(=O)c1cccc(c1)C(=O)N(C1CC3(CCN(C(=O)OC(C)C)CC3)C1)[C@H](CC(C)C)CO2 [Compound 21, Isopropyl 2-[(11R)-6-(2,6-dimethylphenyl)-11-isobutyl-2,2,13-trioxo-9-oxa-2λ^6-thia-3,5,12,19-tetrazatricyclo[12.3.1.14,8]nonadeca-1(18),4(19),5,7,14,16-hexaen-12-yl]-7-azaspiro[3.5]nonane-7-carboxylate]			+++ (+++ is >60%)	< 1 µM	+++ (+++ is >60%)	< 1 µM
COCCN1CCC2(CC1)CC(N1C(=O)c3cccc(c3)S(=O)(=O)Nc3nc(cc(-c4c(C)cccc4C)n3)OC[C@H]1CC(C)C)C2 [Compound 22, (11R)-6-(2,6-dimethylphenyl)-11-isobutyl-12-[7-(2-methoxyethyl)-7-azaspiro[3.5]nonan-2-yl]-2,2-dioxo-9-oxa-2λ^6-thia-3,5,12,19-tetrazatricyclo[12.3.1.14,8]nonadeca-1(18),4(19),5,7,14,16-hexaen-13-one]			+++ (+++ is >60%)	< 1 µM	+++ (+++ is >60%)	< 1 µM
Cc1cccc(C)c1-c1cc2nc(n1)NS(=O)(=O)c1cccc(c1)C(=O)N(C1CN(C(=O)OCc3ccccc3)C1)[C@H](CC(C)C)CO2 [Compound 100, Benzyl 3-[(11R)-6-(2,6-dimethylphenyl)-11-isobutyl-2,2,13-trioxo-9-oxa-2λ^6-thia-3,5,12,19-tetrazatricyclo[12.3.1.14,8]nonadeca-1(18),4(19),5,7,14,16-hexaen-12-yl]azetidine-1-carboxylate]			+++ (+++ is >60%)	< 1 µM	+++ (+++ is >60%)	< 1 µM
Cc1cccc(C)c1-c1cc2nc(n1)NS(=O)(=O)c1cccc(c1)C(=O)N(C1CN(C3CC4(CC4)C3)C1)[C@H](CC(C)C)CO2 [Compound 101, (11R)-6-(2,6-Dimethylphenyl)-11-isobutyl-2,2-dioxo-12-(1-spiro[2.3]hexan-5-ylazetidin-3-yl)-9-oxa-2λ^6-thia-3,5,12,19-tetrazatricyclo[12.3.1.14,8]nonadeca-1(18),4(19),5,7,14,16-hexaen-13-one]			+++ (+++ is >60%)	< 1 µM	+++ (+++ is >60%)	< 1 µM
Cc1cccc(C)c1-c1cc2nc(n1)NS(=O)(=O)c1cccc(c1)C(=O)N(C1CC3(CCN(C)CC3)C1)CC(CC(C)C)(CC(C)C)CO2 (stereo not shown) [Compound 311]			+++ (+++ is >60%)	< 1 µM	+++ (+++ is >60%)	< 1 µM
Cc1cccc(C)c1-c1cc2nc(n1)NS(=O)(=O)c1cccc(c1)C(=O)N([C@H]1CC3(C[C@H](N(C)C)C3)C1)[C@H](CC(C)C)CO2 (stereo partly shown) [Compound 313]			+++ (+++ is >60%)	< 1 µM	+++ (+++ is >60%)	< 1 µM
CCOC(=O)N1CCC2(CC1)CC(N1C(=O)c3cccc(c3)S(=O)(=O)Nc3nc(cc(-c4c(C)cccc4C)n3)OC[C@H]1CC(C)C)C2 [Compound 315]			+++ (+++ is >60%)	< 1 µM	+++ (+++ is >60%)	< 1 µM
Cc1cccc(C)c1-c1cc2nc(n1)NS(=O)(=O)c1cccc(c1)C(=O)N(C1CN(C(C)C)C1)[C@H](CC(C)C)CO2 [Compound 319]			+++ (+++ is >60%)	< 1 µM	+++ (+++ is >60%)	< 1 µM
Cc1cccc(C)c1-c1cc2nc(n1)NS(=O)(=O)c1cccc(c1)C(=O)N(C1CC3(CCN(CCF)CC3)C1)[C@H](CC(C)C)CO2 [Compound 321]			+++ (+++ is >60%)	< 1 µM	+++ (+++ is >60%)	< 1 µM
COC(=O)N1CCCCC12CC(N1C(=O)c3cccc(c3)S(=O)(=O)Nc3nc(cc(-c4c(C)cccc4C)n3)OC[C@H]1CC(C)C)C2 (stereo partly shown) [Compound 323]			+++ (+++ is >60%)	< 1 µM	+++ (+++ is >60%)	< 1 µM
COC(=O)NC1CC2(C1)CC(N1C(=O)c3cccc(c3)S(=O)(=O)Nc3nc(cc(-c4c(C)cccc4C)n3)OC[C@H]1CC(C)C)C2 (stereo partly shown) [Compound 326]			+++ (+++ is >60%)	< 1 µM	+++ (+++ is >60%)	< 1 µM
Cc1cccc(C)c1-c1cc2nc(n1)NS(=O)(=O)c1cccc(c1)C(=O)N(C1CN(C(=O)OC(C)(C)C)C1)[C@H](CC(C)C)CO2 [Compound 334]			+++ (+++ is >60%)	< 1 µM	++ (++ is 30-60%)	< 1 µM
Cc1cccc(C)c1-c1cc2nc(n1)NS(=O)(=O)c1cccc(c1)C(=O)N([C@H]1CC3(C[C@@H](CO)C3)C1)[C@H](CC(C)C)CO2 (stereo partly shown) [Compound 337]			+++ (+++ is >60%)	< 1 µM	+++ (+++ is >60%)	< 1 µM
Cc1cccc(C)c1-c1cc2nc(n1)NS(=O)(=O)c1cccc(c1)C(=O)N([C@H]1CC3(C[C@H](C(=O)N(C)C)C3)C1)[C@H](CC(C)C)CO2 (stereo partly shown) [Compound 343]			+++ (+++ is >60%)	< 1 µM	+++ (+++ is >60%)	< 1 µM
Cc1cccc(C)c1-c1cc2nc(n1)NS(=O)(=O)c1cccc(c1)C(=O)N([C@H]1C[C@@H](NC(=O)OC(C)(C)C)C1)[C@H](CC(C)C)CO2 [Compound 349]			+++ (+++ is >60%)	< 1 µM	++ (++ is 30-60%)	< 1 µM
Cc1cccc(C)c1-c1cc2nc(n1)NS(=O)(=O)c1cccc(n1)C(=O)N(C1CC3(CC3)C1)[C@H](CC(C)(C)C)CO2 [Compound 401]			+++ (+++ is >60%)	< 1 µM	+++ (+++ is >60%)	< 1 µM
Cc1cccc(C)c1-c1cc2nc(n1)NS(=O)(=O)c1cccc(c1)C(=O)N(C1CC3(CC3)C1)[C@@H](CC(C)C)CO2 [Compound 474, (11S)-6-(2,6-Dimethylphenyl)-11-isobutyl-2,2-dioxo-12-spiro[2.3]hexan-5-yl-9-oxa-2λ^6-thia-3,5,12,19-tetrazatricyclo[12.3.1.14,8]nonadeca-1(18),4(19),5,7,14,16-hexaen-13-one]			++ (++ is 30-60%)	< 1 µM	+ (+ is <300%)	< 1 µM
